{"source": "paper PMC10590756", "about": "“Glutarate regulates T cell metabolism and anti-tumour immunity” (Nature Metabolism, 2023)", "key": {"murine CD8^+ T cells": {"tested_on": "murine CD8^+ T cells", "test": "Cell growth and viability of murine CD8^+ T cells", "format": "cell-based", "settings": "7 days", "procedure": "After 7 days of culture, we assessed the abundance of CD62L^hiCD44^hi (TCM-like) T cells by flow cytometry (Fig. 1a). We additionally determined the effect of each compound on cell growth and viability (Fig. 1b and Extended Data Fig. 1a).\nB16F10 cells were originally purchased from ATCC (catalogue no. CRL-6475) and genetically modified to express OVA, enhanced green fluorescent protein (GFP) and neomycin phosphotransferase. The resulting OVA expression B16F10-OVA cells were cultured in DMEM (catalogue no. 11995065, Thermo Fisher Scientific) containing 0.75 mg ml^−1 G418 sulphate (catalogue no. 10131027, Thermo Fisher Scientific). HEK 293T cells were purchased from Takara Bio (catalogue no. 632180) and cultured in DMEM. SKOV3 was purchased from ATCC (catalogue no. HTB-77) and cultured in McCoy’s 5A (Modified) Medium (catalogue no. 16600082, Thermo Fisher Scientific). Raji-GFP-Luc cells were purchased from Biocytogen (catalogue no. B-HCL-010) and cultured in Roswell Park Memorial Institute (RPMI) 1640 (catalogue no. 21875, Thermo Fisher Scientific). Jurkat cells were purchased from ATCC (catalogue no. TIB-152) and cultured in RPMI 1640. RAW 264.7 cells were purchased from ATCC (catalogue no. TIB-71) and cultured in RPMI 1640. HeLa cells were a gift from P. Lehner (University of Cambridge) and were authenticated using short tandem repeat profiling (Eurofins Genomics). HeLa cells were cultured in DMEM. MEFs were isolated from macerated embryonic day (E) 12.5–13.5 embryos. A whole litter of embryos without sex selection were used. Stable transfection with SV40 large T antigen passage 3 was used for immortalization. Cells were subcultured over 17 more passages and maintained in DMEM[63]. All media was supplemented with 10% FCS (catalogue no. 10270106, Gibco), 100 U ml^−1 penicillin and 100 µg ml^−1 streptomycin (catalogue no. P4333, Sigma-Aldrich). […] Cell number and viability was determined using the ADAM-MC Automated Cell Counter (NanoEntek), CellDrop Automated Cell Counter (DeNovix) or TC20 Automated Cell Counter (Bio-Rad Laboratories). […]"}, "[1]": {"tested_on": "protein glutarylation in human CD8^+ T cells", "test": "Pan-lysine glutarylation western blot", "format": "cell-based", "procedure": "We determined this first by undertaking whole-protein lysate western blot analyses with a pan-lysine glutarylation (K-glutarylation) antibody[36],[38]. […] Glutarylation patterns were also altered when cells were exposed to different oxygen tensions (Fig. 3c and Extended Data Fig. 3a) and when treated with DEG (Fig. 3d and Extended Data Fig. 3b). […] Since, as shown in Extended Data Fig. 1g, DEG is converted within 15 min to glutarate intracellularly, it is likely that the DEG-induced glutarylation observed after 30 min of DEG treatment is a direct result of increases in intracellular glutarate.\nCell pellets were lysed by either urea-Tris buffer (8 M urea, 50 mM Tris-HCl (pH 7.5), 150 mM β-mercaptoethanol), sonicated twice for 45 s intercalated with 1 min incubation on ice and centrifuged at 14,000g, 4 °C for 15 min or by RIPA Lysis and Extraction Buffer (catalogue no. 89900, Thermo Fisher Scientific), according to the manufacturer’s instructions. Nuclear and cytosolic fractions were prepared from cells using the NE-PER kit (catalogue no. 78833, Thermo Fisher Scientific). Histones were extracted with the Histone Extraction Kit (catalogue no. ab113476, Abcam). Proteins were separated by SDS–PAGE and transferred to polyvinylidene fluoride (PVDF) membranes. Total protein stain was obtained using non-stain protein labelling reagent (catalogue no. A44448, Thermo Fisher Scientific). […]"}}}
{"smiles": "CCOC(=O)CCCC(=O)OCC", "note": "[DEG, Diethyl glutarate]", "values": [{"measurement": "cell viability or proliferation", "setting": "murine CD8^+ T cells; 400 µM", "result": "no negative effects"}, {"measurement": "cell growth", "setting": "murine CD8^+ T cells; even at 1-mM concentrations", "result": "did not display any negative effects"}, {"measurement": "time of culture with DEG after which shifts in glutarylation could be detected", "setting": "[1]; 500 µM DEG", "result": 30, "unit": "min"}, {"measurement": "glutarylation patterns", "setting": "[1]; increasing concentrations of DEG, 7 days", "result": "altered"}]}
